Experimental data as given in the supplement of paper PMC10307832.

Columns and labels:
Assay in all cases: relative viability (nuclei count vs DMSO), 5 days (fraction); higher = more cells survive
AGI-6780 + Trametinib = compound: O=C(Nc1cccc(C(F)(F)F)c1)Nc1cc(S(=O)(=O)NC2CC2)ccc1-c1ccsc1 [AGI-6780] + CC(=O)Nc1cccc(-n2c(=O)n(C3CC3)c(=O)c3c(Nc4ccc(I)cc4F)n(C)c(=O)c(C)c32)c1 [Trametinib] (partner 0.02 µM)
How it was run: (§1)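 Lung cancer cell lines, seeded in 1536-well plates, were treated the following day by pin tool with a single drug or with five library-drug doses (not always all listed) in √10 steps on top of a fixed anchor-drug dose. Cells were fixed and nuclei stained in one step after 5 days, and nuclei were counted. Relative viability is the nuclei count for treated wells divided by that for vehicle wells, reported as medians of duplicate plates.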

AGI-6780 + Bortezomib = compound: O=C(Nc1cccc(C(F)(F)F)c1)Nc1cc(S(=O)(=O)NC2CC2)ccc1-c1ccsc1 [AGI-6780] + CC(C)C[C@H](NC(=O)[C@H](Cc1ccccc1)NC(=O)c1cnccn1)B(O)O [Bortezomib] (partner 0.002 µM)
How it was run: as §1

AGI-6780 + Pictilisib = compound: O=C(Nc1cccc(C(F)(F)F)c1)Nc1cc(S(=O)(=O)NC2CC2)ccc1-c1ccsc1 [AGI-6780] + CS(=O)(=O)N1CCN(Cc2cc3nc(-c4cccc5[nH]ncc45)nc(N4CCOCC4)c3s2)CC1 [Pictilisib] (partner 1 µM)
How it was run: as §1

AGI-6780 + Olaparib = compound: O=C(Nc1cccc(C(F)(F)F)c1)Nc1cc(S(=O)(=O)NC2CC2)ccc1-c1ccsc1 [AGI-6780] + O=C(c1cc(Cc2n[nH]c(=O)c3ccccc23)ccc1F)N1CCN(C(=O)C2CC2)CC1 [Olaparib] (partner 8 µM)
How it was run: as §1

Row | Cell Line | relative viability (AGI-6780 + Trametinib; first compound 0.08 µM) | relative viability (AGI-6780 + Trametinib; first compound 0.253 µM) | relative viability (AGI-6780 + Trametinib; first compound 0.8 µM) | relative viability (AGI-6780 + Trametinib; first compound 2.53 µM) | relative viability (AGI-6780 + Trametinib; first compound 8 µM) | relative viability (AGI-6780 + Bortezomib; first compound 0.08 µM) | relative viability (AGI-6780 + Bortezomib; first compound 0.253 µM) | relative viability (AGI-6780 + Bortezomib; first compound 0.8 µM) | relative viability (AGI-6780 + Bortezomib; first compound 2.53 µM) | relative viability (AGI-6780 + Bortezomib; first compound 8 µM) | relative viability (AGI-6780 + Pictilisib; first compound 0.08 µM) | relative viability (AGI-6780 + Pictilisib; first compound 0.253 µM) | relative viability (AGI-6780 + Pictilisib; first compound 0.8 µM) | relative viability (AGI-6780 + Pictilisib; first compound 2.53 µM) | relative viability (AGI-6780 + Pictilisib; first compound 8 µM) | relative viability (AGI-6780 + Olaparib; first compound 0.08 µM) | relative viability (AGI-6780 + Olaparib; first compound 0.253 µM) | relative viability (AGI-6780 + Olaparib; first compound 0.8 µM) | relative viability (AGI-6780 + Olaparib; first compound 2.53 µM) | relative viability (AGI-6780 + Olaparib; first compound 8 µM)
1 | 201T | 0.705 | 0.731 | 0.715 | 0.72 | 0.773 | 1.11 | 0.981 | 1.02 | 1.1 | 1.1 | 0.699 | 0.735 | 0.686 | 0.647 | 0.702 | 0.869 | 0.837 | 0.84 | 0.871 | 0.775
2 | A549 |  |  |  |  |  |  |  |  |  |  | 0.583 | 0.463 | 0.604 | 0.459 | 0.463 | 0.32 | 0.298 | 0.337 | 0.302 | 0.377
3 | A-427 |  | 0.7 | 0.797 | 0.559 | 0.725 | 1.13 | 1.02 | 1.06 | 0.917 | 0.991 | 0.702 | 0.753 | 0.653 | 0.524 | 0.854 |  | 0.712 | 0.738 | 0.649 | 0.732
4 | ABC-1 |  |  |  |  |  | 0.295 | 0.35 | 0.335 | 0.262 | 0.378 | 0.86 | 0.865 | 1.05 | 0.864 | 0.756 |  | 0.965 | 0.888 | 0.779 | 0.792
5 | BEN | 0.897 | 0.999 | 1.14 |  | 0.993 | 0.657 | 0.813 | 0.852 |  | 0.754 | 0.527 | 0.629 | 0.586 |  | 0.521 | 1.02 | 1.02 | 1.22 |  | 0.961
6 | CAL-12T | 0.307 | 0.425 | 0.306 | 0.309 | 0.321 |  | 1.05 | 0.944 | 1.31 | 1.06 |  | 0.575 | 0.531 | 0.717 | 0.644 | 0.712 | 0.662 | 0.648 | 0.667 | 0.78
7 | COR-L23 | 0.601 | 0.536 | 0.529 | 0.379 | 0.568 | 1.05 | 0.96 | 0.814 | 0.935 | 0.851 | 0.772 | 0.755 | 0.702 | 0.66 | 0.827 | 0.349 | 0.385 | 0.274 | 0.32 | 0.387
8 | COR-L 105 | 0.465 | 0.576 | 0.464 | 0.397 | 0.351 | 0.886 | 0.896 | 0.993 | 0.766 | 0.813 | 0.482 | 0.393 | 0.463 | 0.463 | 0.39 | 0.632 | 0.466 | 0.707 | 0.66 | 0.541
9 | Calu-6 |  |  |  |  |  | 1.12 | 0.976 | 1.02 | 1.12 | 0.972 | 0.996 | 0.891 | 0.929 | 0.908 | 0.937 | 0.598 | 0.601 | 0.584 | 0.559 | 0.543
10 | ChaGo-K-1 | 0.876 | 0.799 | 0.888 | 0.815 | 0.871 | 0.772 | 1.02 | 1.08 | 1.01 | 0.932 | 0.593 | 0.809 | 0.938 | 0.552 | 0.704 | 0.437 | 0.457 | 0.377 | 0.411 | 0.422
11 | EKVX | 0.32 | 0.383 | 0.392 | 0.386 | 0.312 | 1.12 | 1.07 | 1.05 | 0.697 | 0.958 | 0.445 | 0.437 | 0.495 | 0.395 | 0.495 | 0.894 | 0.811 | 0.935 | 0.763 | 0.863
12 | EMC-BAC-2 |  | 0.909 | 0.896 | 0.752 | 0.842 | 1.14 | 1.03 | 1.1 | 0.856 | 1.14 | 0.579 | 0.575 | 0.602 | 0.395 | 0.617 |  | 0.477 | 0.409 | 0.45 | 0.53
13 | EPLC-272H | 0.285 | 0.328 | 0.291 | 0.254 | 0.312 | 0.905 | 1.03 | 0.901 | 0.766 | 1.03 | 0.39 | 0.33 | 0.257 | 0.344 | 0.318 | 0.748 | 0.827 | 0.633 | 0.732 | 0.942
14 | H3255 | 0.595 | 0.592 | 0.668 |  | 0.609 | 0.572 | 0.739 | 0.836 | 0.69 | 0.865 | 0.475 | 0.436 | 0.512 | 0.457 | 0.443 | 0.505 | 0.526 | 0.607 | 0.566 | 0.632
15 | HARA | 1.02 | 0.638 | 0.685 | 0.707 | 0.628 | 1.24 | 1.09 | 0.948 | 1.19 | 1.16 | 0.379 | 0.406 | 0.54 | 0.587 | 0.371 | 0.847 | 0.945 | 0.311 | 0.893 | 0.83
16 | HCC-15 | 0.369 | 0.426 | 0.349 | 0.309 | 0.369 | 1.1 | 0.993 | 1.06 | 1.04 | 1.02 | 0.88 | 0.82 | 0.834 | 0.594 | 0.801 | 0.724 | 0.808 | 0.703 | 0.657 | 0.76
17 | HCC-44 | 1.08 | 0.993 | 1.1 | 0.994 | 1.07 | 0.927 | 0.887 | 0.884 | 0.843 | 0.928 | 0.745 | 0.72 | 0.649 | 0.496 | 0.486 | 1.03 | 0.989 | 0.98 | 0.979 | 1.02
18 | HCC-78 | 0.824 | 0.629 | 0.925 | 0.924 | 0.775 | 0.479 | 0.432 | 0.739 | 0.626 | 0.581 | 0.159 | 0.241 | 0.299 | 0.152 | 0.249 | 0.897 | 0.798 | 1.06 | 0.665 | 0.849
